Measurements taken from ChEMBL document CHEMBL4602655, “Synthesis and biological evaluation of Isosteviol derivatives as FXa inhibitors” (Bioorg Med Chem Lett, 2020).

How the values were obtained:
[1] = biological target: T1, Coagulation factor X (Homo sapiens, UniProt P00742); test: Inhibition of factor 10a (unknown origin)
[2] = biological target: T1, Coagulation factor X; test: Binding affinity to factor 10a (unknown origin) assessed as dissociation rate constant by SPR assay
[3] = biological target: T1, Coagulation factor X; test: Binding affinity to factor 10a (unknown origin) by SPR assay
[4] = biological target: T1, Coagulation factor X; test: Binding affinity to factor 10a (unknown origin) assessed as association rate constant by SPR assay
[5] = test system: Plasma; test: Anticoagulant activity in plasma assessed as concentration required to double the activated partial thromboplastin time; assay type: ADME, cell-free

T1 sequence (P00742 41-179 limits assumed): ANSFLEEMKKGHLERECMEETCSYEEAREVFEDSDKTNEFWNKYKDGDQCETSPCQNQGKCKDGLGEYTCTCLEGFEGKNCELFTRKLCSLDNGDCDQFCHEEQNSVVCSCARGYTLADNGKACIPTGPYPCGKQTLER
T1 sequence (P00742 235-488 limits assumed): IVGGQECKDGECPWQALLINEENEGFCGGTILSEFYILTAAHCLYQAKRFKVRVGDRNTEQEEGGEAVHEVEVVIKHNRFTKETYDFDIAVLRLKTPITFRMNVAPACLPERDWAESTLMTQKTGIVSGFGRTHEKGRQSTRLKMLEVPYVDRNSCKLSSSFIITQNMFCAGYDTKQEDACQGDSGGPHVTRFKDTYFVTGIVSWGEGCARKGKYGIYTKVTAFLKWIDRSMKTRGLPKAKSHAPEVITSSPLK

Q: How did the IC50 [1] turn out when `CCOC(=O)[C@]1(C)CCC[C@@]2(C)[C@@H]3CC[C@@]4(C)C[C@]3(CC[C@@H]21)C[C@H]4OCc1cn(-c2ccc(F)cc2)nn1` was run?
A: 8.74 µM

Q: How did the IC50 [1] turn out when `CCOC(=O)[C@]1(C)CCC[C@@]2(C)[C@@H]3CC[C@@]4(C)C[C@]3(CC[C@@H]21)C[C@H]4OCc1cn(-c2ccc(Cl)cc2)nn1` was run?
A: 27.3 µM

Q: `CCOC(=O)[C@]1(C)CCC[C@@]2(C)[C@@H]3CC[C@@]4(C)C[C@]3(CC[C@@H]21)C/C4=N\NC(=S)Nc1ccccc1` was tested. Which IC50 [1] did it give?
A: 13.4 µM

Q: How did the IC50 [1] turn out when `CCOC(=O)[C@]1(C)CCC[C@@]2(C)[C@@H]3CC[C@@]4(C)C[C@]3(CC[C@@H]21)C[C@H]4OCc1cn(-c2ccccc2)nn1` was run?
A: 10.4 µM

Q: `CCOC(=O)[C@]1(C)CCC[C@@]2(C)[C@@H]3CC[C@@]4(C)C[C@]3(CC[C@@H]21)C/C4=N\NC(=S)Nc1ccc(OC)cc1OC` was tested. Which IC50 [1] did it give?
A: 33.6 µM

Q: How did the IC50 [1] turn out when `CCOC(=O)[C@]1(C)CCC[C@@]2(C)[C@@H]3CC[C@@]4(C)C[C@]3(CC[C@@H]21)CC4=O` was run?
A: 0.786 µM

Q: Which IC50 [1] does the source give for `CCOC(=O)[C@]1(C)CCC[C@@]2(C)[C@@H]3CC[C@@]4(C)C[C@]3(CC[C@@H]21)C/C4=N\NC(=S)Nc1ccc([N+](=O)[O-])cc1` here?
A: 8.46 µM

Q: How did the IC50 [1] turn out when `CCOC(=O)[C@]1(C)CCC[C@@]2(C)[C@@H]3CC[C@@]4(C)C[C@]3(CC[C@@H]21)C/C4=N\N` was run?
A: 2.82 µM

Q: How did the IC50 [1] turn out when `CCOC(=O)[C@]1(C)CCC[C@@]2(C)[C@@H]3CC[C@@]4(C)C[C@]3(CC[C@@H]21)C/C4=N\NC(=S)Nc1ccc(OC)cc1` was run?
A: 6.65 µM

Q: `CCOC(=O)[C@]1(C)CCC[C@@]2(C)[C@@H]3CC[C@@]4(C)C[C@]3(CC[C@@H]21)C[C@H]4OCc1cn(-c2ccc(Br)cc2)nn1` was tested. Which IC50 [1] did it give?
A: 3.34 µM

Q: With `CCOC(=O)[C@]1(C)CCC[C@@]2(C)[C@@H]3CC[C@@]4(C)C[C@]3(CC[C@@H]21)C/C4=N\NC(=S)Nc1ccc(Br)cc1` as the compound, how does the IC50 [1] read?
A: 8.77 µM

Q: `CCOC(=O)[C@]1(C)CCC[C@@]2(C)[C@@H]3CC[C@@]4(C)C[C@]3(CC[C@@H]21)C/C4=N\NC(=S)Nc1ccc(C(C)C)cc1` was tested. Which IC50 [1] did it give?
A: 54.9 µM

Q: With `CCOC(=O)[C@]1(C)CCC[C@@]2(C)[C@@H]3CC[C@@]4(C)C[C@]3(CC[C@@H]21)C/C4=N\NC(=S)Nc1ccc(C#N)cc1` as the compound, how does the IC50 [1] read?
A: 13.6 µM

Q: Which results are given for `CCOC(=O)[C@]1(C)CCC[C@@]2(C)[C@@H]3CC[C@@]4(C)C[C@]3(CC[C@@H]21)C/C4=N\NC(=S)Nc1ccccc1Cl`?
A: Kd [2]: 1.87 ×10⁻¹ /s; Kd [3]: 9.98 µM; IC50 [1]: 0.209 µM; Ka [4]: 1.88 ×10⁴ /M/s

Q: For `CCOC(=O)[C@]1(C)CCC[C@@]2(C)[C@@H]3CC[C@@]4(C)C[C@]3(CC[C@@H]21)C[C@H]4OCc1cn(-c2ccc(OC)cc2)nn1`, which IC50 [1] is on record?
A: 19.3 µM

Q: `C#CCO[C@@H]1C[C@]23CC[C@H]4[C@@](C)(CCC[C@@]4(C)C(=O)OCC)[C@@H]2CC[C@@]1(C)C3` was tested. Which IC50 [1] did it give?
A: 32.4 µM

Q: `CCOC(=O)[C@]1(C)CCC[C@@]2(C)[C@@H]3CC[C@@]4(C)C[C@]3(CC[C@@H]21)C/C4=N\NC(=S)Nc1ccc(Cl)cc1` was tested. Which Kd [2] did it give?
A: 1.45 ×10⁻¹ /s

Q: And the Kd [3]?
A: 7.52 µM

Q: What about the IC50 [1] of the same compound?
A: 0.153 µM

Q: And the 2aPTT [5]?
A: 9.31 µM

Q: And the Ka [4]?
A: 1.93 ×10⁴ /M/s

Q: `CCOC(=O)[C@]1(C)CCC[C@@]2(C)[C@@H]3CC[C@@]4(C)C[C@]3(CC[C@@H]21)C/C4=N\NC(=S)Nc1cccc2ccccc12` was tested. Which IC50 [1] did it give?
A: 0.955 µM

Q: `CCOC(=O)[C@]1(C)CCC[C@@]2(C)[C@@H]3CC[C@@]4(C)C[C@]3(CC[C@@H]21)C[C@H]4OCc1cn(-c2cccc3ccccc23)nn1` was tested. Which IC50 [1] did it give?
A: 4.87 µM

Q: For `CCOC(=O)[C@]1(C)CCC[C@@]2(C)[C@@H]3CC[C@@]4(C)C[C@]3(CC[C@@H]21)C[C@H]4OCc1cn(-c2cccc(Cl)c2)nn1`, which IC50 [1] is on record?
A: 17.7 µM

Q: How did the IC50 [1] turn out when `CCOC(=O)[C@]1(C)CCC[C@@]2(C)[C@@H]3CC[C@@]4(C)C[C@]3(CC[C@@H]21)C/C4=N\NC(=S)Nc1ccccc1C` was run?
A: 4.15 µM

Q: How did the IC50 [1] turn out when `CCOC(=O)[C@]1(C)CCC[C@@]2(C)[C@@H]3CC[C@@]4(C)C[C@]3(CC[C@@H]21)C/C4=N\NC(=S)Nc1ccc(C(C)(C)C)cc1` was run?
A: 9.03 µM

Q: Which IC50 [1] does the source give for `CCOC(=O)[C@]1(C)CCC[C@@]2(C)[C@@H]3CC[C@@]4(C)C[C@]3(CC[C@@H]21)C[C@H]4O` here?
A: 12.7 µM

Q: With `CCOC(=O)[C@]1(C)CCC[C@@]2(C)[C@@H]3CC[C@@]4(C)C[C@]3(CC[C@@H]21)C[C@H]4OCc1cn(-c2ccc3c(c2)OCO3)nn1` as the compound, how does the IC50 [1] read?
A: 7.57 µM

Q: Which IC50 [1] does the source give for `CCOC(=O)[C@]1(C)CCC[C@@]2(C)[C@@H]3CC[C@@]4(C)C[C@]3(CC[C@@H]21)C[C@H]4OCc1cn(Cc2ccccc2)nn1` here?
A: 29.4 µM

Q: `CCOC(=O)[C@]1(C)CCC[C@@]2(C)[C@@H]3CC[C@@]4(C)C[C@]3(CC[C@@H]21)C[C@H]4OCc1cn(-c2ccccc2C)nn1` was tested. Which IC50 [1] did it give?
A: 34.5 µM

Q: For `CCOC(=O)[C@]1(C)CCC[C@@]2(C)[C@@H]3CC[C@@]4(C)C[C@]3(CC[C@@H]21)C[C@H]4OCc1cn(-c2cccc(C)c2)nn1`, which IC50 [1] is on record?
A: 41.7 µM

Q: How did the IC50 [1] turn out when `CCOC(=O)[C@]1(C)CCC[C@@]2(C)[C@@H]3CC[C@@]4(C)C[C@]3(CC[C@@H]21)C/C4=N\NC(=S)Nc1ccc(C)cc1` was run?
A: 57.7 µM

Q: With `CCOC(=O)[C@]1(C)CCC[C@@]2(C)[C@@H]3CC[C@@]4(C)C[C@]3(CC[C@@H]21)C/C4=N\NC(=S)Nc1cccc(Cl)c1Cl` as the compound, how does the IC50 [1] read?
A: 7.73 µM

Q: For `CCOC(=O)[C@]1(C)CCC[C@@]2(C)[C@@H]3CC[C@@]4(C)C[C@]3(CC[C@@H]21)C/C4=N\NC(=S)Nc1cccc(Cl)c1`, which Kd [2] is on record?
A: 1.56 ×10⁻¹ /s

Q: What about the Kd [3] of the same compound?
A: 8.44 µM

Q: And the IC50 [1]?
A: 0.196 µM

Q: And the 2aPTT [5]?
A: 17.12 µM

Q: And the Ka [4]?
A: 1.84 ×10⁴ /M/s

Q: How did the IC50 [1] turn out when `C[C@@]12CC[C@@H]3[C@@](CC[C@H]4[C@@]3(C)CCC[C@@]4(C)C(=O)O)(CC1=O)C2` [ISOSTEVIOL] was run?
A: 0.642 µM

Q: How did the IC50 [1] turn out when `CCOC(=O)[C@]1(C)CCC[C@@]2(C)[C@@H]3CC[C@@]4(C)C[C@]3(CC[C@@H]21)C/C4=N\NC(=S)Nc1cccc(N(C)C)c1` was run?
A: 29.6 µM

Q: For `CCOC(=O)[C@]1(C)CCC[C@@]2(C)[C@@H]3CC[C@@]4(C)C[C@]3(CC[C@@H]21)C/C4=N\NC(=S)Nc1cccc(C)c1`, which IC50 [1] is on record?
A: 3.76 µM

Q: With `CCOC(=O)[C@]1(C)CCC[C@@]2(C)[C@@H]3CC[C@@]4(C)C[C@]3(CC[C@@H]21)C[C@H]4OCc1cn(-c2ccc(C(C)C)cc2)nn1` as the compound, how does the IC50 [1] read?
A: 20.3 µM

Q: `CCOC(=O)[C@]1(C)CCC[C@@]2(C)[C@@H]3CC[C@@]4(C)C[C@]3(CC[C@@H]21)C/C4=N\NC(=S)Nc1cccc(OC)c1` was tested. Which IC50 [1] did it give?
A: 18.4 µM

Q: How did the IC50 [1] turn out when `CCOC(=O)[C@]1(C)CCC[C@@]2(C)[C@@H]3CC[C@@]4(C)C[C@]3(CC[C@@H]21)C[C@H]4OCc1cn(-c2ccc(C)cc2)nn1` was run?
A: 5.53 µM

Q: How did the IC50 [1] turn out when `CCOC(=O)[C@]1(C)CCC[C@@]2(C)[C@@H]3CC[C@@]4(C)C[C@]3(CC[C@@H]21)C[C@H]4OCc1cn(-c2cc(C)cc(C)c2)nn1` was run?
A: 6.33 µM

Q: `CCOC(=O)[C@]1(C)CCC[C@@]2(C)[C@@H]3CC[C@@]4(C)C[C@]3(CC[C@@H]21)C/C4=N\NC(=S)Nc1ccc(C(F)(F)F)cc1` was tested. Which IC50 [1] did it give?
A: 8.66 µM

Q: With `CCOC(=O)[C@]1(C)CCC[C@@]2(C)[C@@H]3CC[C@@]4(C)C[C@]3(CC[C@@H]21)C/C4=N\NC(=S)Nc1ccc(F)cc1` as the compound, how does the IC50 [1] read?
A: 27.5 µM
